Values quoted from earlier work, collected in patent publication US5116619A, “Vaginal progesterone tablet” (priority 1988, dated 1992).

CC(=O)[C@H]1CC[C@H]2[C@@H]3CCC4=CC(=O)CC[C@]4(C)[C@H]3CC[C@]12C [progesterone, pregn-4-ene-3,20-dione]
plasma half-life (endogenous progesterone): a few minutes
administered radiolabeled progesterone in feces (feces): about 10%
serum levels after oral administration (in vivo, po): significant but highly variable serum levels
first half-life (intravenous injections): 5 to 6 min
second half-life (intravenous injections): 42 to 45 min
local tolerability of deep intramuscular injections (parenteral, site of injection): often very painful and irritating at the site of injection
absorption by the rectal route (rectal, Steege et al.): highly variable
time in which all exogenous progesterone is metabolized (suggested by Myers et al.): ≤ 24 h
administered radiolabeled progesterone in urine (urine): 50 to 60%
